This passage reports AC50 results from ChEMBL document CHEMBL5291721, “A preclinical secondary pharmacology resource illuminates target-adverse drug reaction associations of marketed drugs” (Nat Commun, 2023).

Molecules are shown by their SMILES. Bounds are passed on as bounds.

Test [1] addresses 5-hydroxytryptamine receptor 2B (Homo sapiens, UniProt P41595). The class given is functional, cell-based.
The target in test [2] is T1, Muscarinic acetylcholine receptor M2 (Homo sapiens, UniProt P08172).
T1 sequence (P08172 whole entry): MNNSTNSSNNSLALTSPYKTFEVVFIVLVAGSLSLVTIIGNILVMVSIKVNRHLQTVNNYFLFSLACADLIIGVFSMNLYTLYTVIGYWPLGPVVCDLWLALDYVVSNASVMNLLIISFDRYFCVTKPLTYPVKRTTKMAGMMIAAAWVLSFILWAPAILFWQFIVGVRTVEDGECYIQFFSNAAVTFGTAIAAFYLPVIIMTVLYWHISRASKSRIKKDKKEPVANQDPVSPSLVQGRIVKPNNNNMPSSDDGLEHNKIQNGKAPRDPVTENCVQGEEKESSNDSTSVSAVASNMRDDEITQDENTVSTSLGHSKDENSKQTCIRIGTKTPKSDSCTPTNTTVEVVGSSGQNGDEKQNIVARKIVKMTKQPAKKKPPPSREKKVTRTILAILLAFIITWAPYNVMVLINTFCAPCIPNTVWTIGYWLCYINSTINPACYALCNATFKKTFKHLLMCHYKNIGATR
The class given is functional, cell-based.

The target of test [3] is Beta-2 adrenergic receptor (Homo sapiens, UniProt P07550).
Another test deals with T2, Adenosine receptor A1 (Homo sapiens, UniProt P30542).
T2 sequence (P30542 whole entry): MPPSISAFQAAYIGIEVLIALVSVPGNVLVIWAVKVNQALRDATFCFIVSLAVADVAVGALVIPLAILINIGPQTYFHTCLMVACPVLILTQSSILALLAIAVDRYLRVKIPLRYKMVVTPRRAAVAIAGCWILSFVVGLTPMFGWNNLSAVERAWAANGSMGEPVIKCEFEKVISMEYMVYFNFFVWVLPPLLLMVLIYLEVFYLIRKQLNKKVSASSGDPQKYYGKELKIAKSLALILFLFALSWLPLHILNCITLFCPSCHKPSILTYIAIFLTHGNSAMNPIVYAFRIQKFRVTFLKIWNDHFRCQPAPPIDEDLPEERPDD

The target of a further test is Melanocortin receptor 3 (Homo sapiens, UniProt P41968).
The target of another test is T3, Progesterone receptor (Homo sapiens, UniProt P06401).
T3 sequence (P06401 whole entry): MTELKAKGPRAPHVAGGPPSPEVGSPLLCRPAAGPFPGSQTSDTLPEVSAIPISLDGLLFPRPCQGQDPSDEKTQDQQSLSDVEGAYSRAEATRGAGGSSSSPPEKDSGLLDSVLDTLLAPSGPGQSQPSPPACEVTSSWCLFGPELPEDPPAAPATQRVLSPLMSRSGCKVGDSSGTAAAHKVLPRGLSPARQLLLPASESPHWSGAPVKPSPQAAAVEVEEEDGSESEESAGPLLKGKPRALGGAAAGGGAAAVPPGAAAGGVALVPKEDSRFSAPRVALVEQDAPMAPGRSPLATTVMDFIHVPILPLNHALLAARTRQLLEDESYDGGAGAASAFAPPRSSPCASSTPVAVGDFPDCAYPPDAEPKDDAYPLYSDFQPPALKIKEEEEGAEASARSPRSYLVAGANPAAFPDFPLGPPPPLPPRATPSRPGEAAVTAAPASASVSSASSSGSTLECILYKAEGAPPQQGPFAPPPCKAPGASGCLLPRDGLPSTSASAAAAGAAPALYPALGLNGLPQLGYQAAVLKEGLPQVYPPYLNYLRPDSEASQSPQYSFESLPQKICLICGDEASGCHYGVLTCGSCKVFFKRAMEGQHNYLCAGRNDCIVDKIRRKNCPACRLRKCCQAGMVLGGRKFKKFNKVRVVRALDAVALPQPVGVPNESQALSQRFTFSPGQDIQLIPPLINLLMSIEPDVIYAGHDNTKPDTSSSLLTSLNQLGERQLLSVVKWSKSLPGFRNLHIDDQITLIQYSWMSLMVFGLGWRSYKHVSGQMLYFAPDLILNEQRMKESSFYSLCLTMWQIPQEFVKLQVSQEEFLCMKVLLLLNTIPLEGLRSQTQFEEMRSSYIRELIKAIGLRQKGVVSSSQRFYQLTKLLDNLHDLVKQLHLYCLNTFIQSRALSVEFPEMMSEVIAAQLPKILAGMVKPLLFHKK
The class given is functional.

The target in test [4] is T1, Muscarinic acetylcholine receptor M2. Type of test: functional, cell-based. The source holds these as a separate data set.
Test [5] concerns the target Sodium-dependent dopamine transporter (Homo sapiens, UniProt Q01959).
In another test the target is Motilin receptor (Homo sapiens, UniProt O43193).
The target of test [6] is T4, 5-hydroxytryptamine receptor 1A (Homo sapiens, UniProt P08908).
T4 sequence (P08908 whole entry): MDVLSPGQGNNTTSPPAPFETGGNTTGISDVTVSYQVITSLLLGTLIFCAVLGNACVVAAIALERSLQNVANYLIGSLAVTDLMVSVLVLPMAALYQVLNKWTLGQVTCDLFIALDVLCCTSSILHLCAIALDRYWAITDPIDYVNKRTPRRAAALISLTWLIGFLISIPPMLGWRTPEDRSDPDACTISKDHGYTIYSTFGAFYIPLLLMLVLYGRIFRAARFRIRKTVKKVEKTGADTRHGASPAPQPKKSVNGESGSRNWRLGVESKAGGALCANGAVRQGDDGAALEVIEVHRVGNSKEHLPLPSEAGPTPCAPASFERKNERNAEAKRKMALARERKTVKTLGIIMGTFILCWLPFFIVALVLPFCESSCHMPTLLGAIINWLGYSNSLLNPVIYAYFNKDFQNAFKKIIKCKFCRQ
The class given is functional, cell-based.

Test [7] has as its target T5, Equilibrative nucleoside transporter 1 (Homo sapiens, UniProt Q99808).
T5 sequence (Q99808 whole entry): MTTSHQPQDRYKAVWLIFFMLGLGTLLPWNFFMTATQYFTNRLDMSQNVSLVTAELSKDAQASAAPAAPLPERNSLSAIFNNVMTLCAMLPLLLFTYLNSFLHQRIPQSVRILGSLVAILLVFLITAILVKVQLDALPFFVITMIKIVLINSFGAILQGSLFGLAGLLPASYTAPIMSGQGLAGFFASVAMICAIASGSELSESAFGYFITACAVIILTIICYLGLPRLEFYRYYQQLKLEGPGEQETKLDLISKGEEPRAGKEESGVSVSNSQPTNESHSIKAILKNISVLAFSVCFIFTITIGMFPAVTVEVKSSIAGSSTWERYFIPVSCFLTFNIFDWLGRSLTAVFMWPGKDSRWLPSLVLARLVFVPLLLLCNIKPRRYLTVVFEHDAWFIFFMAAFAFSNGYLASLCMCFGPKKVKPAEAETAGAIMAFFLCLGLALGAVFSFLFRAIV
Further: assay procedure not described here.

Chain of 5-hydroxytryptamine receptor 2B (P41595 whole entry): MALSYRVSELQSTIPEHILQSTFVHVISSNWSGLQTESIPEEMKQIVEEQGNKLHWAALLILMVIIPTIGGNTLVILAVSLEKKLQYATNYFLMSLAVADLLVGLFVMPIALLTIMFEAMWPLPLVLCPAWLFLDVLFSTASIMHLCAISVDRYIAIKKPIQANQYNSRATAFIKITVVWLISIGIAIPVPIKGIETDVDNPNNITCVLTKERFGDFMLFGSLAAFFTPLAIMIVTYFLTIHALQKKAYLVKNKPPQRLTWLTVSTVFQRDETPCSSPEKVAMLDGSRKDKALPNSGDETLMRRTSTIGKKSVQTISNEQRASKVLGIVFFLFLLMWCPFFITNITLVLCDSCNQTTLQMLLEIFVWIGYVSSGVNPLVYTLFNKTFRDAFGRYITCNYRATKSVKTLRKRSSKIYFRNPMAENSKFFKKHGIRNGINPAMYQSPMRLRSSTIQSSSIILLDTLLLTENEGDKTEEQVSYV
Chain of Melanocortin receptor 3 (P41968 whole entry): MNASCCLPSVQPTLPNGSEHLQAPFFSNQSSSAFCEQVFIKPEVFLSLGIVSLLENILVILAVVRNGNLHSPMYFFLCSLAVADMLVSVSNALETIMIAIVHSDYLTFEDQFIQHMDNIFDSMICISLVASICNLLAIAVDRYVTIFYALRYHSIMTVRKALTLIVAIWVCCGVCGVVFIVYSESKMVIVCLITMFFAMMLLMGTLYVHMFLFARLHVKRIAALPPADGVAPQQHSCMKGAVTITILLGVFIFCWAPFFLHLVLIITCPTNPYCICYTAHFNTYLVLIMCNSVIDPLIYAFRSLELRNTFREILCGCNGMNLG
Chain of Sodium-dependent dopamine transporter (Q01959 whole entry): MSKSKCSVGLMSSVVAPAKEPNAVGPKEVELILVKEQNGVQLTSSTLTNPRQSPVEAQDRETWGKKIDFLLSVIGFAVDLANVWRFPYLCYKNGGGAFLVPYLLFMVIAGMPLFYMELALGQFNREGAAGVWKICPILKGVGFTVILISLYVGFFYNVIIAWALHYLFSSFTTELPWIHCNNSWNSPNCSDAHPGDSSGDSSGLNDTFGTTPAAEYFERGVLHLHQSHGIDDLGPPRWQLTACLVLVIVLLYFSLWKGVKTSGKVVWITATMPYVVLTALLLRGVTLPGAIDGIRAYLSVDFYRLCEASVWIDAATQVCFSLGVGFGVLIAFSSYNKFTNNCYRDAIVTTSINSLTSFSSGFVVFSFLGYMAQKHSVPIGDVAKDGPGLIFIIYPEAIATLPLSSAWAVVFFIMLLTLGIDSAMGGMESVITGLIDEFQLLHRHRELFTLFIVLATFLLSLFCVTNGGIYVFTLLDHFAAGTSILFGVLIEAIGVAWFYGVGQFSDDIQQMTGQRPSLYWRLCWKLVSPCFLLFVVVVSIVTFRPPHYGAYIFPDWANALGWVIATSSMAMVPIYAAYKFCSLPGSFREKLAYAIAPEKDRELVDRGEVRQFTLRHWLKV
Chain of Beta-2 adrenergic receptor (P07550 whole entry): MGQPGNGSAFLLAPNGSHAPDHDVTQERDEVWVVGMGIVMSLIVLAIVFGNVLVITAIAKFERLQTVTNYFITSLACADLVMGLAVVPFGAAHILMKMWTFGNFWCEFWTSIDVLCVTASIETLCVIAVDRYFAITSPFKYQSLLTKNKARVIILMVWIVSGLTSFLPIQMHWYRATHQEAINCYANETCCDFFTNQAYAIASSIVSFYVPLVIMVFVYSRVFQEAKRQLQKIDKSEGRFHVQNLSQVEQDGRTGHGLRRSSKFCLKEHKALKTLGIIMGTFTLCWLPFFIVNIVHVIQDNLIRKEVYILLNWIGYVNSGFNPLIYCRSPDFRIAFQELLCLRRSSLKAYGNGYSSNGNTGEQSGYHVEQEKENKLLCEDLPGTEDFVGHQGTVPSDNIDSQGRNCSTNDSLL
Chain of Motilin receptor (O43193 whole entry): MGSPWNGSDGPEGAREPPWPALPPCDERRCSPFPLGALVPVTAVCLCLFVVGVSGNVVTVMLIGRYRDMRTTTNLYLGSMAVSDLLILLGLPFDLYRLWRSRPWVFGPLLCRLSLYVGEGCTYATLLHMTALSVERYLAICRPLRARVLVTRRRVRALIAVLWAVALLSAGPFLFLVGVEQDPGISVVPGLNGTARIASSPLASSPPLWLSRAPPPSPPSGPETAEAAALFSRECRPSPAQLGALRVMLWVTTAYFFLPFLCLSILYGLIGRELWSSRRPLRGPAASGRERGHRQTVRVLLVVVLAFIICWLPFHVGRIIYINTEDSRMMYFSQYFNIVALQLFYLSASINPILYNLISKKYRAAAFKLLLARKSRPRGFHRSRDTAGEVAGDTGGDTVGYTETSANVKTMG

In the case of `COc1ccc(CC2c3cc(OC)c(OC)cc3CC[N+]2(C)CCC(=O)OCCCCCOC(=O)CC[N+]2(C)CCc3cc(OC)c(OC)cc3C2Cc2ccc(OC)c(OC)c2)cc1OC` (stereo not given), the AC50 (in [1]; in test [2]; in test [3]; at Adenosine receptor A1; at Melanocortin receptor 3; on Progesterone receptor) was greater than 30 µM throughout. Besides, the AC50 (in [4]; in [5]; at Motilin receptor; in test [6]; in test [7]) was greater than 30 µM throughout.
On to `CN(C)CC[C@@H](c1ccc(Cl)cc1)c1ccccn1` [DEXCHLORPHENIRAMINE], for which the AC50 is greater than 30 µM in test [1]; 26 µM in test [2]; greater than 30 µM in [3]; greater than 30 µM on Adenosine receptor A1; greater than 30 µM on Melanocortin receptor 3; greater than 30 µM at Progesterone receptor. Further, the AC50 (in test [4]; on Motilin receptor; in test [6]; in test [7]) was greater than 30 µM each time.
In the case of `C[C@H]1c2cccc(O)c2C(=O)C2=C(O)[C@]3(O)C(=O)C(C(N)=O)=C(O)[C@@H](N(C)C)[C@@H]3[C@@H](O)[C@@H]21` [DOXYCYCLINE], the AC50 was greater than 10 µM in test [1]; greater than 10 µM in [2]; greater than 10 µM in test [3]; 24.2 µM on Adenosine receptor A1; greater than 30 µM at Melanocortin receptor 3; greater than 10 µM in test [4]. Further, the AC50 was greater than 10 µM in [5], greater than 10 µM at Motilin receptor, greater than 10 µM in test [6] and greater than 30 µM in [7].
On to `CC(C)Cc1ccc(C(C)C(=O)O)cc1` (stereo not given) [IBUPROFEN], for which the AC50 in test [1] is greater than 10 µM; in [2] it was greater than 10 µM; in test [3] it was greater than 10 µM; at Adenosine receptor A1, greater than 30 µM; on Melanocortin receptor 3 it was greater than 30 µM; in test [4], greater than 10 µM. The AC50 was greater than 30 µM in [5], greater than 10 µM at Motilin receptor, greater than 10 µM in test [6] and greater than 30 µM in test [7].
Turning to `C=C[C@H]1C[N@@]2CC[C@H]1C[C@@H]2[C@@H](O)c1ccnc2ccc(OC)cc12` [QUINIDINE], the AC50 in test [1] is 1.16 µM; in [2] it was greater than 10 µM; in test [3], greater than 10 µM; at Adenosine receptor A1, greater than 30 µM; on Melanocortin receptor 3 it was greater than 30 µM; in test [4] it was greater than 10 µM. In addition, the AC50 is 9.56 µM in test [5], greater than 10 µM on Motilin receptor, greater than 30 µM in test [6] and greater than 30 µM in test [7].
As to `CN(C)CCc1c[nH]c2ccc(Cn3cncn3)cc12` [RIZATRIPTAN], the AC50 in test [1] is 14 µM; in test [2], greater than 30 µM; in test [3], greater than 10 µM; on Adenosine receptor A1, greater than 30 µM; at Melanocortin receptor 3 it was greater than 30 µM; in test [4] it was greater than 30 µM. The AC50 in test [5] was greater than 10 µM; at Motilin receptor, greater than 10 µM; in test [7], greater than 30 µM.
As to `Nc1ccc(S(=O)(=O)Nc2nccs2)cc1` [SULFATHIAZOLE], the AC50 in [1] was greater than 10 µM; in test [2] it was greater than 10 µM; in test [3] it was greater than 10 µM; at Adenosine receptor A1, greater than 30 µM; at Melanocortin receptor 3, greater than 30 µM; in test [4], greater than 10 µM. Besides, the AC50 was greater than 10 µM in test [5], greater than 10 µM on Motilin receptor, greater than 10 µM in test [6] and greater than 30 µM in [7].
Turning to `CCN(CC)CCNC(=O)c1c(C)[nH]c(/C=C2\C(=O)Nc3ccc(F)cc32)c1C` [SUNITINIB], the AC50 in [1] was greater than 30 µM; in test [2], greater than 10 µM; in test [3], 8 µM; at Adenosine receptor A1, 6.4 µM; on Melanocortin receptor 3 it was 7.8 µM; at Progesterone receptor, 1.7 µM. Besides, the AC50 in test [4] was greater than 30 µM; on Motilin receptor, 7.3 µM; in test [6] it was greater than 30 µM; in [7], 5 µM.
Turning to `COc1cc2nc(N3CCN(C(=O)C4CCCO4)CC3)nc(N)c2cc1OC` (stereo not given) [TERAZOSIN], the AC50 in [1] was greater than 10 µM; in test [2] it was greater than 10 µM; in test [3] it was greater than 10 µM; at Adenosine receptor A1, greater than 30 µM; on Melanocortin receptor 3, greater than 30 µM; in test [4] it was greater than 10 µM. In addition, the AC50 was greater than 10 µM in test [5], greater than 10 µM on Motilin receptor, greater than 10 µM in test [6] and greater than 30 µM in [7].
As to `CC(S)C(=O)NCC(=O)O` (stereo not given) [TIOPRONIN], the AC50 (in test [1]; in [2]; at Adenosine receptor A1; at Melanocortin receptor 3; on Progesterone receptor; in test [4]) was greater than 30 µM in each case. Besides, the AC50 (in test [5]; on Motilin receptor; in [6]; in test [7]) was greater than 30 µM each time.
In the case of `CCCC(CCC)C(=O)O` [VALPROIC ACID], the AC50 was greater than 10 µM in [1]; greater than 10 µM in [2]; greater than 10 µM in [3]; greater than 30 µM on Adenosine receptor A1; greater than 30 µM at Melanocortin receptor 3; greater than 10 µM in [4]. Further, the AC50 is 4.97 µM in [5], greater than 10 µM on Motilin receptor, greater than 10 µM in [6] and greater than 30 µM in test [7].

Usually AC50 stands for the concentration giving half of the maximal activity seen. Read a low AC50 as greater potency.
